Data reported in patent publication US12077503B2, “Substituted cyclic amides and their use as herbicides” (FMC CORPORATION, priority 2015, dated 2024).
Where two headings read alike, the source gives them in different places.

Assays:
Format in all cases: in vivo
[1] = tested on: blackgrass (Alopecurus myosuroides); assay: Test A postemergence; conditions: Alopecurus myosuroides, post-emergence, 240 h; for pest or weed control at 125 g/ha: 125 g ai/ha, read-out: Blackgrass plant response rating (0 to 100 scale); for pest or weed control at 500 g/ha: 500 g ai/ha, visual injury, 0 to 100 scale (0 no effect, 100 complete control), approx. 10 d, read-out: Plant response rating, Blackgrass
How it was run: (§1)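 Seeds sprayed preemergence with a directed soil spray, or plants at 2 to 10 cm height and one- to two-leaf stage sprayed postemergence, with test chemicals in a non-phytotoxic solvent mixture containing surfactant, in loam soil–sand blend. Injury rated visually against untreated controls after about 10 d in greenhouse, 0 (no effect) to 100 (complete control).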

[2] = tested on: wheat (Triticum aestivum); assay: Test A postemergence; conditions: Triticum aestivum, post-emergence, 240 h; for plant injury at 125 g/ha: 125 g ai/ha, read-out: Wheat plant response rating (0 to 100 scale); for plant injury at 500 g/ha: 500 g ai/ha, visual injury, 0 to 100 scale (0 no effect, 100 complete control), approx. 10 d, read-out: Plant response rating, Wheat
How it was run: as §1

Kochia (Kochia scoparia) [3] = assay: Test A postemergence; conditions: Bassia scoparia, post-emergence, 240 h; for pest or weed control at 125 g/ha: 125 g ai/ha, read-out: Kochia plant response rating (0 to 100 scale); for pest or weed control at 500 g/ha: 500 g ai/ha, visual injury, 0 to 100 scale (0 no effect, 100 complete control), approx. 10 d, read-out: Plant response rating, Kochia
How it was run: as §1

[4] = tested on: ryegrass, Italian (Italian ryegrass, Lolium multiflorum); assay: Test A postemergence; conditions: Lolium multiflorum, post-emergence, 240 h; for pest or weed control at 125 g/ha: 125 g ai/ha, read-out: Ryegrass, Italian plant response rating (0 to 100 scale); for pest or weed control at 500 g/ha: 500 g ai/ha, visual injury, 0 to 100 scale (0 no effect, 100 complete control), approx. 10 d, read-out: Plant response rating, Ryegrass, Italian
How it was run: as §1

[5] = tested on: ragweed (common ragweed, Ambrosia elatior); assay: Test A postemergence; conditions: Ambrosia artemisiifolia, post-emergence, 240 h; for pest or weed control at 125 g/ha: 125 g ai/ha, read-out: Ragweed plant response rating (0 to 100 scale); for pest or weed control at 500 g/ha: 500 g ai/ha, visual injury, 0 to 100 scale (0 no effect, 100 complete control), approx. 10 d, read-out: Plant response rating, Ragweed
How it was run: as §1

[6] = tested on: pigweed (Amaranthus retroflexus); assay: Test A preemergence; conditions: Amaranthus retroflexus, pre-emergence, 240 h, preemergence, 0 to 100 scale where 0 is no effect and 100 is complete control, read-out: Pigweed plant response rating; for pest or weed control at 125 g/ha: 125 g ai/ha, visual injury rating, approximately 10 d; for pest or weed control at 500 g/ha: 500 g ai/ha
[7] = tested on: barnyardgrass (Echinochloa crus-galli); assay: Test A preemergence; conditions: Echinochloa crus-galli, pre-emergence, 240 h, preemergence, 0 to 100 scale where 0 is no effect and 100 is complete control, read-out: Barnyardgrass plant response rating; for pest or weed control at 125 g/ha: 125 g ai/ha, visual injury rating, approximately 10 d; for pest or weed control at 500 g/ha: 500 g ai/ha
How it was run: as §1

Kochia (Kochia scoparia) [8] = assay: Test A preemergence; conditions: Bassia scoparia, pre-emergence, 240 h, preemergence, 0 to 100 scale where 0 is no effect and 100 is complete control, read-out: Kochia plant response rating; for pest or weed control at 125 g/ha: 125 g ai/ha, visual injury rating, approximately 10 d; for pest or weed control at 500 g/ha: 500 g ai/ha
How it was run: as §1

[9] = tested on: ryegrass, Italian (Italian ryegrass, Lolium multiflorum); assay: Test A preemergence; conditions: Lolium multiflorum, pre-emergence, 240 h, preemergence, 0 to 100 scale where 0 is no effect and 100 is complete control, read-out: Ryegrass, Italian plant response rating; for pest or weed control at 125 g/ha: 125 g ai/ha, visual injury rating, approximately 10 d; for pest or weed control at 500 g/ha: 500 g ai/ha
How it was run: as §1

[10] = tested on: giant foxtail (Setaria faberii); assay: Test A preemergence; conditions: Setaria faberi, pre-emergence, 240 h, preemergence, 0 to 100 scale where 0 is no effect and 100 is complete control, read-out: Foxtail, Giant plant response rating; for pest or weed control at 125 g/ha: 125 g ai/ha, visual injury rating, approximately 10 d; for pest or weed control at 500 g/ha: 500 g ai/ha
How it was run: as §1

[11] = tested on: ragweed (common ragweed, Ambrosia elatior); assay: Test A preemergence; conditions: Ambrosia artemisiifolia, pre-emergence, 240 h, preemergence, 0 to 100 scale where 0 is no effect and 100 is complete control, read-out: Ragweed plant response rating; for pest or weed control at 125 g/ha: 125 g ai/ha, visual injury rating, approximately 10 d; for pest or weed control at 500 g/ha: 500 g ai/ha
How it was run: as §1

[12] = tested on: barnyardgrass (Echinochloa crus-galli); assay: Test B flooded paddy test; conditions: Echinochloa crus-galli, 250 g ai/ha, Flood; 0 to 100 scale where 0 is no effect and 100 is complete control; read-out: Barnyardgrass plant response rating
How it was run: (§2)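 Plants at 2-leaf stage flooded to 3 cm above soil, with compounds applied directly to paddy water and that depth maintained. Plants kept in greenhouse 13–15 d. Visual rating versus controls on a 0 (no effect) to 100 (complete control) scale.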

rice (Oryra sativa) = assay: Test B flooded paddy test; conditions: Oryza sativa, 250 g ai/ha, Flood; 0 to 100 scale where 0 is no effect and 100 is complete control; read-out: Rice plant response rating
How it was run: as §2

[13] = tested on: sedge, umbrella (small-flower umbrella sedge, Cyperus difformis); assay: Test B flooded paddy test; conditions: Cyperus difformis, 250 g ai/ha, Flood; 0 to 100 scale where 0 is no effect and 100 is complete control; read-out: Sedge, Umbrella plant response rating
How it was run: as §2

[14] = tested on: ducksalad (Heteranthera limosa); assay: Test B flooded paddy test; conditions: Heteranthera limosa, 250 g ai/ha, Flood; 0 to 100 scale where 0 is no effect and 100 is complete control; read-out: Ducksalad plant response rating
How it was run: as §2

[15] = postemergence, visual injury vs untreated controls after approx. 10 d, 0 = no effect, 100 = complete control
[16] = Postemergence, visual rating about 10 d after treatment

| Structure (SMILES) | pest or weed control at 500 g/ha ([1]; Postemergence) [%] | plant injury at 500 g/ha ([2]; Postemergence) [%] | pest or weed control at 500 g/ha (Kochia (Kochia scoparia) [3]; Postemergence) [%] | pest or weed control at 500 g/ha ([4]; Postemergence) [%] | pest or weed control at 500 g/ha ([5]; Postemergence) [%] | pest or weed control at 125 g/ha [6] [%] | pest or weed control at 500 g/ha [6] [%] | pest or weed control at 125 g/ha [7] [%] | pest or weed control at 500 g/ha [7] [%] | pest or weed control at 125 g/ha (Kochia (Kochia scoparia) [8]) [%] | pest or weed control at 500 g/ha (Kochia (Kochia scoparia) [8]) [%] | pest or weed control at 125 g/ha [9] [%] | pest or weed control at 500 g/ha [9] [%] | pest or weed control at 125 g/ha [10] [%] | pest or weed control at 500 g/ha [10] [%] | pest or weed control at 125 g/ha [11] [%] | pest or weed control at 500 g/ha [11] [%] | pest or weed control at 250 g/ha [12] [%] | pest or weed control at 250 g/ha (rice (Oryra sativa)) [%] | pest or weed control at 250 g/ha [13] [%] | further results |
| --- | --- | --- | --- | --- | --- | --- | --- | --- | --- | --- | --- | --- | --- | --- | --- | --- | --- | --- | --- | --- | --- |
| CN1C[C@H](c2cccc(C(F)(F)F)c2)[C@@H](C(=O)Nc2ccc(F)cc2C(F)(F)F)C1=O [Compound 1250] | 60 | 70 | 20 | 50 | 0 | 30 | 30 | 100 | 100 | 0 | 40 | 50 | 50 | 100 | 100 | 0 | 0 | 50 | 0 | 0 | pest or weed control at 125 g/ha [1, 15]: 20%; plant injury at 125 g/ha [2, 15]: 40%; pest or weed control at 125 g/ha (Kochia (Kochia scoparia) [3]; [15]): 0%; pest or weed control at 125 g/ha [4, 15]: 20%; pest or weed control at 125 g/ha [5, 15]: 0%; pest or weed control at 250 g/ha [14]: 100% |
| CN1C[C@H](c2ccc(C(F)(F)F)cc2)[C@@H](C(=O)Nc2ccccc2)C1=O [Compound 1253] | 50 | 50 | 70 | 60 | 0 | 50 | 80 | 90 | 100 | 80 | 80 | 20 | 60 | 100 | 100 | 40 | 60 | 40 | 0 | 0 | pest or weed control at 125 g/ha [1, 15]: 30%; pest or weed control at 125 g/ha (Kochia (Kochia scoparia) [3]; [15]): 60%; pest or weed control at 125 g/ha [4, 15]: 40%; pest or weed control at 125 g/ha [5, 15]: 0%; pest or weed control at 250 g/ha [14]: 100% |
| Cc1nc([C@H]2CN(C)C(=O)[C@@H]2C(=O)Nc2ccccc2F)cs1 [Compound 1280] | 0 | 0 | 0 | 0 | 0 | 0 | 30 | 0 | 50 | 0 | 0 | 0 | 0 | 0 | 80 | 0 | 0 | 0 | 0 | 0 | pest or weed control at 125 g/ha [1, 16]: 0%; plant injury at 125 g/ha [2, 16]: 0%; pest or weed control at 125 g/ha (Kochia (Kochia scoparia) [3]; [16]): 0%; pest or weed control at 125 g/ha [4, 16]: 0%; pest or weed control at 125 g/ha [5, 16]: 0%; pest or weed control at 250 g/ha [14]: 0% |
| COc1cc([C@H]2CN(C)C(=O)[C@@H]2C(=O)Nc2ccccc2S(C)(=O)=O)ccc1F [Compound 1302] | 20 | 0 | 20 | 20 | 0 | 0 | 30 | 60 | 90 | 0 | 60 | 0 | 0 | 90 | 90 | 0 | 50 | 20 | 15 | 0 | pest or weed control at 125 g/ha [1, 16]: 0%; plant injury at 125 g/ha [2, 16]: 0%; pest or weed control at 125 g/ha (Kochia (Kochia scoparia) [3]; [16]): 0%; pest or weed control at 125 g/ha [4, 16]: 0%; pest or weed control at 125 g/ha [5, 16]: 0%; pest or weed control at 250 g/ha [14]: 80% |
